Structures can show the parent of a compound that is named as a salt. Where two headings read alike, the source gives them in different places.
Columns and labels:
Assay type in all cases: cell-based, Plasmodium falciparum
[1] = system: P. falciparum Tm4/8.2 (wild type); assay: In vitro anti-Plasmodial activity against Tm4/8.2; conditions: P. falciparum Tm4/8.2, wild type DHFR
Procedure: (§1) It is an object of the invention to provide anti-folate antimalarials with dual-binding modes, and pharmaceutically acceptable salts thereof, for substantially inhibiting dihydrofolate reductase enzymes. Enzymes, comprising dihydrofolate reductase of Plasmodium falciparum, wild-type, double (C59R+S108N), triple (N51+C59R+S108N, C59R+S108N+1164L), and quadruple (N51+C59R+S108N+I164L) mutants were prepared. The inhibition constants (Ki) of the enzymes with the invented compounds were investigated using a standard method. In vitro antimalarial activity (IC50) with malaria parasites carrying Tm4/8.2 (wild type), K1CB1 (double mutant, C59R+S108N), W2 (triple mutant N51I+C59R+S 108N), Cs1-2 (triple mutant, C59R+S108N+I164L), and V1/S (quadruple mutant, N51I+C59R+S108N+I164L) were also investigated using a standard method.

[2] = system: P. falciparum K1CB1 (double mutant, C59R+S108N); assay: In vitro anti-Plasmodial activity against K1CB1
Procedure: as §1

[3] = system: P. falciparum W2 (triple mutant N51I+C59R+S108N); assay: In vitro anti-Plasmodial activity against W2
Procedure: as §1

[4] = system: P. falciparum Cs1-2 (triple mutant, C59R+S108N+I164L); assay: In vitro anti-Plasmodial activity against Cs1-2
Procedure: as §1

[5] = system: P. falciparum V1/S (quadruple mutant, N51I+C59R+S108N+I164L); assay: In vitro anti-Plasmodial activity against V1/S
Procedure: as §1

[6] = Plasmodium falciparum, read-out: IC50 K1CB1, P. falciparum K1CB1, double mutant
[7] = Plasmodium falciparum, W2, read-out: IC50 W2, P. falciparum W2, triple mutant
[8] = Plasmodium falciparum, read-out: IC50 Cs1-2, P. falciparum Cs1-2, triple mutant
[9] = Plasmodium falciparum, read-out: IC50 V1/S, P. falciparum V1/S, quadruple mutant

SMILES	IC50 ([1]; Plasmodium falciparum) [nM]	IC50 [2, 6] [nM]	IC50 [3, 7] [nM]	IC50 [4, 8] [nM]	IC50 [5, 9] [nM]	IC50 ([3]; read-out: IC50 W2, P. falciparum W2, triple mutant) [nM]	IC50 ([4]; read-out: IC50 Cs1-2, P. falciparum Cs1-2, triple mutant) [nM]	IC50 ([5]; read-out: IC50 V1/S, P. falciparum V1/S, quadruple mutant) [nM]	IC50 ([1]; dihydrochloride) [nM]	IC50 ([2]; read-out: IC50 K1CB1, P. falciparum K1CB1, double mutant, dihydrochloride) [nM]	IC50 ([3]; read-out: IC50 W2, P. falciparum W2, triple mutant, dihydrochloride) [nM]	IC50 ([4]; read-out: IC50 Cs1-2, P. falciparum Cs1-2, triple mutant, dihydrochloride) [nM]	IC50 ([5]; read-out: IC50 V1/S, P. falciparum V1/S, quadruple mutant, dihydrochloride) [nM]
CCc1nc(N)nc(N)c1OCCCOc1cccc(-c2c(N)nc(N)nc2CC)c1 [Compound A, 5-(3′-(3″-(2,4-diamino-6-ethylpyrimidin-5-yloxy)propoxy)phenyl)-6-ethylpyrimidine-2,4-diamine]	290 ± 50	220 ± 60	250 ± 80	510 ± 80	1720 ± 690								
CCc1nc(N)nc(N)c1OCCCOc1ccc(-c2c(N)nc(N)nc2CC)cc1 [Compound B, 5-(4′-(3″-(2,4-diamino-6-ethylpyrimidin-5-yloxy)propoxy)phenyl)-6-ethylpyrimidine-2,4-diamine]	69 ± 10	> 1000				> 1000	> 1000	> 1000					
CCc1nc(N)nc(N)c1OCCCOc1ccc(-c2c(N)nc(N)nc2CC)cc1 [Compound D, 5-(4′-(3″-(2,4-diamino-6-ethylpyrimidin-5-yloxy)propoxy)phenyl)-6-ethylpyrimidine-2,4-diamine dihydrochloride]									63 ± 10	1840 ± 310	2380 ± 110	3950 ± 360	4400 ± 710
CCc1nc(N)nc(N)c1-c1ccc(OCCCOc2ccc(-c3c(N)nc(N)nc3CC)cc2)cc1 [Compound E, 5-(4′-3″-(4″′-(2,4-diamino-6-ethylpyrimidin-5-yl)phenoxy)propoxy)phenyl)-6-ethylpyrimidine-2,4-diamine dihydrochloride]	35	330 ± 40	280 ± 20	310 ± 20	330 ± 20								
CCc1nc(N)nc(N)c1-c1ccc(Cl)cc1 [Pyr, Pyrimethamine, reference compound]	66 ± 30	27000 ± 3330	39000 ± 5420	37000 ± 5980	> 100000								

From patent US9000003B2, “Anti-folate antimalarials with dual-binding modes and their preparation” (priority 2011, dated 2015)
